Reference: patent US10150760B2, “Compounds for use in preparing heterocyclic triazole agonists of the APJ receptor” (AMGEN INC., priority 2016, dated 2018)
pEC50: −log10 of the molar value.

How the values were obtained:
[1] = system: isolated perfused rat hearts; experiment: Ex vivo isolated perfused rat heart assay (Langendorff apparatus), load independent inotropic and lusitropic effects; set-up: species or system Sprague Dawley rat; details: ex vivo isolated perfused rat heart, percent change over vehicle; for Isolated Heart Assay dP/dtmax (%): contractility; for Isolated Heart Assay dP/dtmin (%): relaxation
Excerpt: Evidence for Load Independent Inotropic Effects with APJ Agonists Using Ex Vivo Assay (Isolated Perfused Rat Hearts)
Naive Sprague Dawley® SD rats (Harlan laboratories (Livermore, Calif. USA)) were anaesthetized and hearts were excised followed by cannulation in the Langendorff apparatus (Harvard apparatus, Holliston, Mass. USA) via aorta. The heart was perfused retrograde with modified oxygenated Krebs-Henseleit buffer (Skrzypiec-Spring M et al., (2007) J. Pharmacol Toxicol Methods 55: 113-126). The pressure of the solution causes the aortic valve to shut and the perfusate is then forced into the ostium and the coronary vessels. This allows the heart to beat for several h. A balloon was inserted into the left ventricle (LV) to measure dP/dtmax (derivative of left ventricular pressure) as an index of cardiac contractility. The APJ agonist was perfused constantly in a dose dependent manner into the heart to examine cardiac contractility.
Example 49.0 was infused at different concentrations and load independent contractility was measured by index of LV dP/dtmax and the results are expressed as a percent change over vehicle. […] Example 49.0 was infused at different concentrations and load independent lusitropic effect (relaxation) was measured by index of LV dP/dtmin where results are expressed as percent change over vehicle. […] Example 60.0 was infused at different concentrations and load independent contractility was measured by index of LV dP/dtmax and the results are expressed as a percent change over vehicle. […] Example 60.0 was infused at different concentrations and load independent lusitropic effect (relaxation) was measured by index of LV dP/dtmin where results are expressed as percent change over vehicle.

human APJ receptor = human APJ receptor (Homo sapiens (Human), UniProt P35414); experiment: [35S]GTPγS binding assay on membranes from CHO cells stably expressing human APJ receptor; assay type: biochemical; details: read-out: Activity hAPJ SPA EC50 IP
Chain of human APJ receptor (P35414 whole entry): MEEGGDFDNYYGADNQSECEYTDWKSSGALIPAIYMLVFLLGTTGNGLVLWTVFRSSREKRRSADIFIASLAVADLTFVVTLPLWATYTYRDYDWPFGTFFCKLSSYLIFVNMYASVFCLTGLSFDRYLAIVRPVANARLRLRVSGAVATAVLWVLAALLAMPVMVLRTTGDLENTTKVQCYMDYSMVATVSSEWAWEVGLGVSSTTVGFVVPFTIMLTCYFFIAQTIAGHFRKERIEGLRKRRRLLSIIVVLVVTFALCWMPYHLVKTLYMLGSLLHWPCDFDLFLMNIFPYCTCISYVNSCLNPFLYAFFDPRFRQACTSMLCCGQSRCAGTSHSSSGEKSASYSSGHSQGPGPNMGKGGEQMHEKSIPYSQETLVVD
Procedure, shortened: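 Membranes from CHO cells stably expressing human APJ incubated with ligand, 0.2 nM [35S]GTPγS and WGA SPA beads in HEPES pH 7.5 with 5 mM MgCl2, 200 mM NaCl, 3 μM GDP, 90 min at RT. Nonspecific binding defined with 100 μM GTPγS; EC50 by non-linear regression.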

SMILES	Isolated Heart Assay dP/dtmax (%) [1]	Isolated Heart Assay dP/dtmin (%) [1]	pEC50 (human APJ receptor)
COc1cccc(OC)c1-n1c(NS(=O)(=O)[C@@H](C)[C@H](OC)c2ncc(Cl)cn2)nnc1[C@H]1OCC[C@H]1C (single isomer, unassigned) [Example 73.0, (1R,2S)-1-(5-chloropyrimidin-2-yl)-N-(4-(2,6-dimethoxyphenyl)-5-((2R,3S)-3-methyltetrahydrofuran-2-yl)-4H-1,2,4-triazol-3-yl)-1-methoxypropane-2-sulfonamide or (1R,2S)-1-(5-chloropyrimidin-2-yl)-N-(4-(2,6-dimethoxyphenyl)-5-((2S,3R)-3-methyltetrahydrofuran-2-yl)-4H-1,2,4-triazol-3-yl)-1-methoxypropane-2-sulfonamide]	2.0%	No effect	8.85
COc1cccc(OC)c1-n1c(NS(=O)(=O)[C@@H](C)[C@H](OC)c2ncc(Cl)cn2)nnc1[C@H]1OCC[C@H]1C (single isomer, unassigned) [Example 74.0, (1R,2S)-1-(5-chloropyrimidin-2-yl)-N-(4-(2,6-dimethoxyphenyl)-5-((2R,3S)-3-methyltetrahydrofuran-2-yl)-4H-1,2,4-triazol-3-yl)-1-methoxypropane-2-sulfonamide or (1R,2S)-1-(5-chloropyrimidin-2-yl)-N-(4-(2,6-dimethoxyphenyl)-5-((2S,3R)-3-methyltetrahydrofuran-2-yl)-4H-1,2,4-triazol-3-yl)-1-methoxypropane-2-sulfonamide]	5.8%	2.1%	6.92
COc1cccc(OC)c1-n1c(NS(=O)(=O)[C@@H](C)[C@H](OC)c2ncc(Cl)cn2)nnc1[C@H]1CC[C@@H](C)O1 (single isomer, unassigned) [Example 77.0, (1R,2S)-1-(5-chloropyrimidin-2-yl)-N-(4-(2,6-dimethoxyphenyl)-5-((2S,5S)-5-methyltetrahydrofuran-2-yl)-4H-1,2,4-triazol-3-yl)-1-methoxy-propane-2-sulfonamide or (1R,2S)-1-(5-chloropyrimidin-2-yl)-N-(4-(2,6-dimethoxyphenyl)-5-((2R,5R)-5-methyltetrahydrofuran-2-yl)-4H-1,2,4-triazol-3-yl)-1-methoxypropane-2-sulfonamide]	5.0%	No effect	9.85
COc1cccc(OC)c1-n1c(NS(=O)(=O)[C@@H](C)[C@H](OC)c2ncc(Cl)cn2)nnc1[C@H]1CC[C@@H](C)O1 (single isomer, unassigned) [Example 78.0, (1R,2S)-1-(5-chloropyrimidin-2-yl)-N-(4-(2,6-dimethoxyphenyl)-5-((2S,5S)-5-methyltetrahydrofuran-2-yl)-4H-1,2,4-triazol-3-yl)-1-methoxy-propane-2-sulfonamide or (1R,2S)-1-(5-chloropyrimidin-2-yl)-N-(4-(2,6-dimethoxyphenyl)-5-((2R,5R)-5-methyltetrahydrofuran-2-yl)-4H-1,2,4-triazol-3-yl)-1-methoxypropane-2-sulfonamide]	7.09%	8.61%	8.30
COc1ncnc(OC)c1-n1c(NS(=O)(=O)[C@@H](C)[C@H](OC)c2ncc(Cl)cn2)nnc1[C@H]1CCCO1 (single isomer, unassigned) [Example 80.0, (1R,2S)-1-(5-chloropyrimidin-2-yl)-N-(4-(4,6-dimethoxypyrimidin-5-yl)-5-((S)-tetrahydrofuran-2-yl)-4H-1,2,4-triazol-3-yl)-1-methoxypropane-2-sulfonamide or (1R,2S)-1-(5-chloropyrimidin-2-yl)-N-(4-(4,6-dimethoxypyrimidin-5-yl)-5-((R)-tetrahydrofuran-2-yl)-4H-1,2,4-triazol-3-yl)-1-methoxypropane-2-sulfonamide]	No effect	No effect	8.04
